Assay results reported in paper PMC9266368, “Synthesis and Biological Evaluation of Small Molecules as Potential Anticancer Multitarget Agents” (International Journal of Molecular Sciences, 2022).

Key:
[1] = tested on: A-549 (lung adenocarcinoma); assay: MTT cell viability assay, A-549; format: cell-based; details: Homo sapiens, A549, 48 h, 2 days incubation, average ±SD of three experiments
Procedure: (§1) The effects of triazole derivatives 1–26 on the cell viability were determined by MTT assay, and the IC50 values were determined toward the human tumor cell lines HT-29 (colon adenocarcinoma), A-549 (lung adenocarcinoma), and MCF-7 (breast adenocarcinoma), as well as toward the non-tumor cell line HEK-293 (human embryonic kidney cells).
(§2) In 96-well plates, 3 × 10^3 (A549 and HEK-293) or 5 × 10^3 (HT-29, MCF-7) cells per well were incubated with serial dilutions of the tested compounds in a total volume of 100 μL of their growth media. The 3-(4,5-dimethylthiazol-2-yl)-2,5-diphenyltetrazolium bromide (MTT; Sigma Chemical Co.) dye reduction assay in 96-well microplates was used. After 2 days of incubation (37 °C, 5% CO2 in a humid atmosphere), 10 μL of MTT (5 mg/mL in phosphate-buffered saline, PBS) was added to each well, and the plate was incubated for a further 3 h (37 °C). After that, the supernatant was discarded and replaced by 100 µL of DMSO to dissolve formazan crystals. The absorbance was then read at 550 nm by spectro-photometry. For all concentrations of compound, cell viability was expressed as the percentage of the ratio between the mean absorbance of treated cells and the mean absorbance of untreated cells. Three independent experiments were performed, and the IC50 values (i.e., concentration half inhibiting cell proliferation) were graphically determined by using GraphPad Prism 4 software (2019).

[2] = tested on: HEK-293 (human embryonic kidney cells); assay: MTT cell viability assay, HEK-293; format: cell-based; details: HEK293, 48 h, 2 days incubation, non-tumor cell line, average ±SD of three experiments
Procedure: as §1, §2

c-Myc = c-Myc relative quantification by flow cytometry; format: cell-based, human; details: for c-Myc relative detection, A-549 / c-Myc relative detection, HT-29 / c-Myc relative detection, MCF-7: 24 h, 100 or 10 μM (Table 7), relative to DMSO control
Procedure: (§3) The study was carried out again on HT-29, A-549, and MCF-7 cell lines by flow cytometry after 24 h of treatment with the corresponding compounds. The presence of the targets in the whole cell were relatively determined by using DMSO-treated cells as a negative control and BMS-8 as a positive one for PD-L1 (Table 3).
(§4) To study the effect of the compounds on every biological target in cancer cell lines the compounds were used at a 100 or 10 μM dose, depending on their IC50 and the treated cell line.
(§5) For the assay, 10^5 cells per well were incubated for 24 h with the corresponding dose of the tested compound in a total volume of 500 μL of their growth media.
(§6) For the detection of total PD-L1, VEGFR-2, and c-Myc, the procedure was the same as for membrane targets, but after fixation, a treatment with 0,5% in PBS TritonTM X-100 was performed. The antibodies used for PD-L1 and VEGFR-2 were the ones previously described, and for the detection of c-Myc, it was FITC Rabbit monoclonal anti-c-Myc (ab223913).

membrane PD-L1 (mPD-L1) = biological target: T1, membrane PD-L1 (mPD-L1) (Homo sapiens, UniProt Q9NZQ7); assay: Membrane PD-L1 relative quantification by flow cytometry; format: cell-based; details: 24 h, 100 or 10 μM (Table 7), percentage referred to DMSO control
T1 construct: endogenous in cells; host or cells: HT-29, A-549, MCF-7
Procedure: Based on antiproliferative activity of synthetized derivatives, we decided to study the effect of the amino derivatives 14–26 on the expression of both membrane targets PD-L1 and VEGFR-2 (mPD-L1 and mVEGFR-2). The evaluation was performed on three cancer cell lines (HT-29, A-549, and MCF-7) by flow cytometry after 24 h of treatment with the corresponding compounds. Compounds were used at a 100 or 10 μM concentration depending on their IC50 value (see Table 1 in Materials and Methods section). The presence of both targets in the membrane was relatively determined by using DMSO-treated cells as a negative control.
as §4, §5
To detect membrane PD-L1 and VEGFR-2, after the cell treatments, they were collected, fixed with 4% in PBS paraformaldehyde, and stained with FITC Mouse monoclonal Anti-Human VEGFR-2 (ab184903) and Alexa Fluor® 647 Rabbit monoclonal Anti-PD-L1 (ab215251).

[3] = biological target: T2, membrane VEGFR-2 (mVEGFR-2) (Homo sapiens, UniProt P35968); assay: Membrane VEGFR-2 relative quantification by flow cytometry; format: cell-based; details: 24 h, 100 or 10 μM (Table 7), sorafenib 10 μM, percentage referred to DMSO control
T2 construct: endogenous in cells; host or cells: HT-29, A-549, MCF-7
Procedure: The presence of both targets in the membrane was relatively determined by using DMSO-treated cells as a negative control.
as §5

total PD-L1 (tPD-L1) = biological target: T3, total PD-L1 (tPD-L1) (Homo sapiens, UniProt Q9NZQ7); assay: Total PD-L1 relative quantification by flow cytometry; format: cell-based; details: 24 h, 100 or 10 μM (Table 7), relative to DMSO control
T3 construct: endogenous in cells; host or cells: HT-29, A-549, MCF-7
Procedure: as §3, §4, §5, §6

[4] = tested on: MCF-7 (breast adenocarcinoma); assay: MTT cell viability assay, MCF-7; format: cell-based; details: Homo sapiens, MCF7, 48 h, 2 days incubation, average ±SD of three experiments
Procedure: as §1, §2

[5] = tested on: HT-29 (colon adenocarcinoma); assay: MTT cell viability assay, HT-29; format: cell-based; details: Homo sapiens, HT-29, 48 h, 2 days incubation, average ±SD of three experiments
Procedure: as §1, §2

T3 sequence (Q9NZQ7 19-290): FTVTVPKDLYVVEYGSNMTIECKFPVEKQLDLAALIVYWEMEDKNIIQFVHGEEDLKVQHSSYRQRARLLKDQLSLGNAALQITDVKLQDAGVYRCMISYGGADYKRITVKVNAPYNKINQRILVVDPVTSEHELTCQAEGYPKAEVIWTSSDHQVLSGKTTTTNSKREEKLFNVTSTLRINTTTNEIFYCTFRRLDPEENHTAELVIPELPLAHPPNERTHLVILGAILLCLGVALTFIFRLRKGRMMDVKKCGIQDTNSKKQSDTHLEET
T1 sequence (Q9NZQ7 19-290): as above
T2 sequence (P35968 20-1356): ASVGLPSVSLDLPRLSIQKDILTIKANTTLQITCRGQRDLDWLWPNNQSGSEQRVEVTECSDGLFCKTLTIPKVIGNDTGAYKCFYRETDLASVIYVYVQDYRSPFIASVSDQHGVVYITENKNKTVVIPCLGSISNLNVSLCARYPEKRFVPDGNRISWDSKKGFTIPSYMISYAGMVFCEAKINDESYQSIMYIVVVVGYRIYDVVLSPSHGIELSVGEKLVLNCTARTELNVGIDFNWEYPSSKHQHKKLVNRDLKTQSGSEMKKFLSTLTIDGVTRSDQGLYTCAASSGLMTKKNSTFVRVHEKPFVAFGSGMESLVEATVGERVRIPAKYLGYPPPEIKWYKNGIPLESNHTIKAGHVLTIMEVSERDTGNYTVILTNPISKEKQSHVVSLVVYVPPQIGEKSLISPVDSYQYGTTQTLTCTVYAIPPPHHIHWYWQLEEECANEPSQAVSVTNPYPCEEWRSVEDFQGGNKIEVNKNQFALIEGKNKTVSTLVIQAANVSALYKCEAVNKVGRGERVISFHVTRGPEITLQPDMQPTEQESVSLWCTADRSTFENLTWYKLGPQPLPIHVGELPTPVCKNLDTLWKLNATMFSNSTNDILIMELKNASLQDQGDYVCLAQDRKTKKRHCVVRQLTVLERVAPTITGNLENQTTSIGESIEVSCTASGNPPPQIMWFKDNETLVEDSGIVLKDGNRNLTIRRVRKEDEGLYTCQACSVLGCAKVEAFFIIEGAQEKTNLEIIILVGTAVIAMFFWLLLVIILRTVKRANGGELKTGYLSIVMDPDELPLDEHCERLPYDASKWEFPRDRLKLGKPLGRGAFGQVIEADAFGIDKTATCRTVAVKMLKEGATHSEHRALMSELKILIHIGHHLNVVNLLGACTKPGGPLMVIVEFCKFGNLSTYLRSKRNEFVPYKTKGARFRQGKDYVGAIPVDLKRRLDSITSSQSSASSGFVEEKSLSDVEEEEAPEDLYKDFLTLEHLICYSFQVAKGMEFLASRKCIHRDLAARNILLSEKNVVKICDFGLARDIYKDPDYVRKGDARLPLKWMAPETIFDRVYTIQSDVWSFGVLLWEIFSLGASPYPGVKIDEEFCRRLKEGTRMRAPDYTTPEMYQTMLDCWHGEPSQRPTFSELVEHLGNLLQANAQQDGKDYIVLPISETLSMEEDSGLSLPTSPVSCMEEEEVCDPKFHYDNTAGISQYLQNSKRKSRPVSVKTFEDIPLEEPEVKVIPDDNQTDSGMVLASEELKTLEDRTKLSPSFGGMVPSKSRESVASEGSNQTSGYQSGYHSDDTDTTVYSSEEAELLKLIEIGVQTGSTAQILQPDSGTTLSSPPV

Row | melting point [°C] | IC50 [1] [µM] | mPD-L1 relative detection, A-549 (membrane PD-L1 (mPD-L1)) [%] | mPD-L1 relative detection, HT-29 (membrane PD-L1 (mPD-L1)) [%] | mPD-L1 relative detection, MCF-7 (membrane PD-L1 (mPD-L1)) [%] | mVEGFR-2 relative detection, A-549 [3] [%] | mVEGFR-2 relative detection, HT-29 [3] [%] | mVEGFR-2 relative detection, MCF-7 [3] [%] | tPD-L1 relative detection, A-549 (total PD-L1 (tPD-L1)) [%] | tPD-L1 relative detection, HT-29 (total PD-L1 (tPD-L1)) [%] | tPD-L1 relative detection, MCF-7 (total PD-L1 (tPD-L1)) [%] | IC50 [4] [µM] | IC50 [5] [µM] | SMILES | IC50 [2] [µM] | c-Myc relative detection, A-549 (c-Myc; A-549) [%] | Inhibition of c-Myc, A-549 (c-Myc; A-549, compared to non-treated cells) [%] | c-Myc relative detection, HT-29 (c-Myc) [%] | c-Myc relative detection, MCF-7 (c-Myc) [%]
1 | 134 to 135 |  | >100 | 87 ± 17 | 87 ± 17 | >100 | >100 | >100 | 76 ± 1 | 48 ± 7 | >100 | 8 ± 4 | 8.5 | Nc1ccc(-c2cn(Cc3cccc(Br)c3)nn2)cc1 [Compound 25, 4-(1-(3-bromobenzyl)-1H-1,2,3-triazol-4-yl)aniline] | 4 ± 3 | >100 |  | >100 | 56 ± 10
2 | 100 to 103 |  |  |  |  |  |  |  |  |  |  |  |  | Brc1ccccc1Cn1cc(-c2ccccc2)nn1 [Compound 11, 1-(2-bromobenzyl)-4-phenyl-1H-1,2,3-triazole] |  |  |  |  | 
3 | 153 to 155 |  |  |  |  |  |  |  |  |  |  |  |  | Brc1ccc(Cn2cc(-c3ccccc3)nn2)cc1 [Compound 13, 1-(4-bromobenzyl)-4-phenyl-1H-1,2,3-triazole] |  |  |  |  | 
4 | 96 to 99 |  |  |  |  |  |  |  |  |  |  |  |  | Brc1cccc(Cn2cc(-c3ccccc3)nn2)c1 [Compound 12, 1-(3-bromobenzyl)-4-phenyl-1H-1,2,3-triazole] |  |  |  |  | 
5 | 108 to 110 |  |  |  |  |  |  |  |  |  |  |  |  | Clc1cccc(Cn2cc(-c3ccccc3)nn2)c1 [Compound 9, 1-(3-chlorobenzyl)-4-phenyl-1H-1,2,3-triazole] |  |  |  |  | 

Continued, molecule first:

Row | SMILES | melting point [°C] | IC50 [1] [µM] | mPD-L1 relative detection, A-549 (membrane PD-L1 (mPD-L1)) [%] | mPD-L1 relative detection, HT-29 (membrane PD-L1 (mPD-L1)) [%] | mPD-L1 relative detection, MCF-7 (membrane PD-L1 (mPD-L1)) [%] | mVEGFR-2 relative detection, A-549 [3] [%] | mVEGFR-2 relative detection, HT-29 [3] [%] | mVEGFR-2 relative detection, MCF-7 [3] [%] | tPD-L1 relative detection, A-549 (total PD-L1 (tPD-L1)) [%] | tPD-L1 relative detection, HT-29 (total PD-L1 (tPD-L1)) [%] | tPD-L1 relative detection, MCF-7 (total PD-L1 (tPD-L1)) [%] | IC50 [4] [µM] | IC50 [5] [µM] | IC50 [2] [µM] | c-Myc relative detection, A-549 (c-Myc; A-549) [%] | Inhibition of c-Myc, A-549 (c-Myc; A-549, compared to non-treated cells) [%] | c-Myc relative detection, HT-29 (c-Myc) [%] | c-Myc relative detection, MCF-7 (c-Myc) [%]
6 | Clc1ccccc1Cn1cc(-c2ccccc2)nn1 [Compound 8, 1-(2-chlorobenzyl)-4-phenyl-1H-1,2,3-triazole] | 86 to 88 |  |  |  |  |  |  |  |  |  |  |  |  |  |  |  |  | 
7 | Nc1ccc(-c2cn(Cc3ccc(Br)cc3)nn2)cc1 [Compound 26, 4-(1-(4-bromobenzyl)-1H-1,2,3-triazol-4-yl)aniline] | 169 to 170 | 8 ± 2 | 76 ± 4 | 94 ± 15 | 84 ± 23 | >100 | 85 ± 7 | >100 | 80 ± 12 | 51 ± 2 | >100 | 8 ± 1 | 14 ± 6 | > 100 | 82 ± 4 | 20 | >100 | 64 ± 6
8 | COc1cccc(Cn2cc(-c3ccc(N)cc3)nn2)c1 [Compound 19, 4-(1-(3-methoxybenzyl)-1H-1,2,3-triazol-4-yl)aniline] | 103 to 105 | > 100 | >100 | >100 | 96 ± 5 | >100 | 94 ± 1 | >100 | >100 | 85 ± 17 | >100 | 12 ± 5 | > 100 | > 100 | >100 |  | >100 | 55 ± 5
9 | COc1ccccc1Cn1cc(-c2ccc(N)cc2)nn1 [Compound 18, 4-(1-(2-methoxybenzyl)-1H-1,2,3-triazol-4-yl)aniline] | 166 to 167 | > 100 | 89 ± 9 | 61 ± 22 | 81 ± 2 | >100 | 93 ± 1 | >100 | 91 ± 4 | 70 ± 11 | >100 | > 100 | > 100 | > 100 | >100 |  | >100 | 53 ± 3
10 | CNC(=O)c1cc(Oc2ccc(NC(=O)Nc3ccc(Cl)c(C(F)(F)F)c3)cc2)ccn1 [Sorafenib, sorafenib, reference compound] |  | 27 ± 2 |  |  |  |  |  |  |  |  |  | 14 ± 4 | 17 ± 4 | 5 |  |  |  | 
11 | Clc1ccc(Cn2cc(-c3ccccc3)nn2)cc1 [Compound 10, 1-(4-chlorobenzyl)-4-phenyl-1H-1,2,3-triazole] | 141 to 144 |  |  |  |  |  |  |  |  |  |  |  |  |  |  |  |  | 
